According to patent publication US20110130380A1, “Heteroaryl Kinase Inhibitors” (priority 2009, published 2011):

These compounds were tested against Cdk9/cyclinT1 (Homo sapiens, UniProt P50750) (assay: Cdk9/cyclinT1 IMAP Protocol (fluorescence polarization kinase assay)). Conditions: Cdk9_cyclinT1_IC50, Table V; generated using one of the two Cdk9/cyclinT1 assays (IMAP or Alpha Screen), not stated which; ATP 6 uM.
Sequence of Cdk9/cyclinT1 (P50750 whole entry): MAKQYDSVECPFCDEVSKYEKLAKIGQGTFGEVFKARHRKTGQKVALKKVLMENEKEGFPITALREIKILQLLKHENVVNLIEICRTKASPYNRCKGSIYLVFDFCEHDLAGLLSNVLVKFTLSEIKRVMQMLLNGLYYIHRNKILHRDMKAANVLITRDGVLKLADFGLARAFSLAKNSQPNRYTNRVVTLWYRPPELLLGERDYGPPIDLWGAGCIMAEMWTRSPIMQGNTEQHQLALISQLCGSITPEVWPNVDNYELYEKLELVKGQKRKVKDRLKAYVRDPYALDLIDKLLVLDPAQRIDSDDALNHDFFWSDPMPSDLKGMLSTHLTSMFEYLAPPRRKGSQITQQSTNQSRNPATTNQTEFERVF
Sequence of Cdk9/cyclinT1 (O60563 whole entry partner): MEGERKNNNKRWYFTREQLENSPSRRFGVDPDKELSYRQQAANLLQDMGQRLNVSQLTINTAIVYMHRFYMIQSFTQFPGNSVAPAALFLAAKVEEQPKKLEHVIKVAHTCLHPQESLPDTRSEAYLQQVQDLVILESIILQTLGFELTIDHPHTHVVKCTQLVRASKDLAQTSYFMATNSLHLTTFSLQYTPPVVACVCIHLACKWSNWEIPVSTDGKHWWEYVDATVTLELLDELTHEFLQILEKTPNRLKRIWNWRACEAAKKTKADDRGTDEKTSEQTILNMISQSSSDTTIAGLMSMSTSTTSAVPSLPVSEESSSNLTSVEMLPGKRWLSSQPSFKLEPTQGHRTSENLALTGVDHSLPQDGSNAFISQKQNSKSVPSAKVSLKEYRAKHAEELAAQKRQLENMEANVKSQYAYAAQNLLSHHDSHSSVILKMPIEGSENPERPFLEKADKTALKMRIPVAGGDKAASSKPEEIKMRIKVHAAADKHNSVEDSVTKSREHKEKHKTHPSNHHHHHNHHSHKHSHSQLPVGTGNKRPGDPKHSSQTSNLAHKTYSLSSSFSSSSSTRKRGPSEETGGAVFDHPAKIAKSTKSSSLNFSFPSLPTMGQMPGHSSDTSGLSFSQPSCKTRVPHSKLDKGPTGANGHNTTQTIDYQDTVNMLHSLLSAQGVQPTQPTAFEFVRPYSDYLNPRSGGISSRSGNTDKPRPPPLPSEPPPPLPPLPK

Row | SMILES | IC50 [nM]
1 | CCN1CCCC(C(=O)Nc2cc(-c3cccc(NCC4CCOCC4)n3)c(Cl)cn2)C1 (stereo not shown) [Example 9, 1-Ethyl-piperidine-3-carboxylic acid {5′-chloro-6-[(tetrahydro-pyran-4-ylmethyl)-amino]-[2,4′]bipyridinyl-2′-yl}-amide] | 144
2 | COC(=O)N[C@@H]1CC[C@H](C(=O)Nc2cc(-c3nc(NCC4CCOCC4)ccc3Cl)c(Cl)cn2)C1 [Example 106, ((lR,3S)-3-{3,5′-Dichloro-6-[(tetrahydro-pyran-4-ylmethyl)-amino]-[2,4′]bipyridinyl-2′-ylcarbamoyl}-cyclopentyl)-carbamic acid methyl ester] | < 8
3 | COC(=O)N1CCC[C@H](C(=O)Nc2cc(-c3nc(NCC4CCOC(C)(C)C4)ccc3Cl)c(Cl)cn2)C1 (stereo partly drawn) [Example 140, (S)-3-{3,5′-Dichloro-6-[(2,2-dimethyl-tetrahydro-pyran-4-ylmethyl)-amino]-[2,4′]bipyridinyl-2′-ylcarbamoyl}-piperidine-1-carboxylic acid methyl ester] | < 8
4 | CNc1cccc(-c2cc(NC(=O)[C@@H]3CCCNC3)ncc2Cl)n1 [Example 21, (R)-Piperidine-3-carboxylic acid (5′-chloro-6-methylamino-[2,4′]bipyridinyl-2′-yl)-amide] | 76
5 | O=C(Nc1cc(-c2nc(NCC3CCOCC3)ccc2F)c(Cl)cn1)[C@H]1CNCCO1 [Example 158, (R)-Morpholine-2-carboxylic acid {5′-chloro-3-fluoro-6-[(tetrahydro-pyran-4-ylmethyl)-amino]-[2,4′]bipyridinyl-2′-yl}-amide] | 5
6 | CO[C@H]1CNC[C@@H]1C(=O)Nc1cc(-c2cccc(NCC3CCOC(C)(C)C3)n2)c(Cl)cn1 (stereo partly drawn) [Example 151, (3S,4R)-4-Methoxy-pyrrolidine-3-carboxylic acid {5′-chloro-6-[(2,2-dimethyl-tetrahydro-pyran-4-ylmethyl)-amino]-[2,4′]bipyridinyl-2′-yl}-amide] | < 8
7 | CS(=O)(=O)N1CCC[C@H](C(=O)Nc2cc(-c3nc(NCC4CCOCC4)ccc3Cl)c(Cl)cn2)C1 [Example 108, (S)-1-Methanesulfonyl-piperidine-3-carboxylic acid {3,5′-dichloro-6-[(tetrahydro-pyran-4-ylmethyl)-amino]-[2,4′]bipyridinyl-2′-yl}-amide] | < 8
8 | CC(C)CNc1cccc(-c2cc(NC(=O)[C@@H]3CCCNC3)ncc2Cl)n1 [Example 22, (R)-Piperidine-3-carboxylic acid (5′-chloro-6-isobutylamino-[2,4′]bipyridinyl-2′-yl)-amide] | 33
9 | O=C(Nc1cc(-c2cccc(NCC3CCOCC3)n2)c(Cl)cn1)[C@@H]1CC[C@H](C(F)(F)F)NC1 (racemic) [Example 160, (3R,6R)-/(3S,6S)-6-Trifluoromethyl-piperidine-3-carboxylic acid {5′-chloro-6-[(tetrahydro-pyran-4-ylmethyl)-amino]-[2,4′]bipyridinyl-2′-yl}-amide] | 11
10 | CCN1CCCC(C(=O)Nc2cc(-c3cccc(NCC4CCOCC4)n3)c(Cl)cn2)C1 (single isomer, unassigned) [Example 14] | 811
11 | COC(=O)N1CCC[C@H](C(=O)Nc2cc(-c3nc(NC[C@@H]4CCOC(C)(C)C4)ccc3Cl)c(Cl)cn2)C1 (single isomer, unassigned) [Example 174] | 1
12 | COC(=O)N1CCC[C@@H](C(=O)Nc2cc(-c3cccc(NCC4CCOCC4)n3)c(Cl)cn2)C1 [Example 84, (R)-3-{5′-Chloro-6-[(tetrahydro-pyran-4-ylmethyl)-amino]-[2,4′]bipyridinyl-2′-ylcarbamoyl}-piperidine-1-carboxylic acid methyl ester] | 419
13 | O=C(Nc1cc(-c2cccc(NCC3CCOCC3)n2)c(Cl)cn1)[C@H]1CNC[C@H](C(F)(F)F)C1 (racemic) [Example 149, (3R,5R)-/(3S,5S)-5-Trifluoromethyl-piperidine-3-carboxylic acid {5′-chloro-6-[(tetrahydro-pyran-4-ylmethyl)-amino]-[2,4′]bipyridinyl-2′-yl}-amide] | 31
14 | O=C(Nc1cc(-c2cccc(NCc3ccccc3F)n2)c(Cl)cn1)[C@@H]1CCCNC1 [Example 51, (R)-Piperidine-3-carboxylic acid [5′-chloro-6-(2-fluoro-benzylamino)-[2,4′]bipyridinyl-2′-yl]-amide] | 10
15 | C[C@@H](O)CNc1cccc(-c2cc(NC(=O)[C@@H]3CCCNC3)ncc2Cl)n1 [Example 29, (R)-Piperidine-3-carboxylic acid [5′-chloro-6-((R)-2-hydroxy-propylamino)-[2,4′]bipyridinyl-2′-yl]-amide] | 26
16 | O=C(Nc1cc(-c2ccc(F)c(NCC3CCOCC3)n2)c(Cl)cn1)[C@@H]1CCCNC1 [Example 135, (R)-Piperidine-3-carboxylic acid {5′-chloro-5-fluoro-6-[(tetrahydro-pyran-4-ylmethyl)-amino]-[2,4′]bipyridinyl-2′-yl}-amide] | 1
17 | CS(=O)(=O)N[C@H]1CC[C@@H](C(=O)Nc2cc(-c3nc(NCC4CCOCC4)ccc3Cl)c(Cl)cn2)C1 [Example 110, (1R,3S)-3-Methanesulfonylamino-cyclopentanecarboxylic acid {3,5′-dichloro-6-[(tetrahydro-pyran-4-ylmethyl)-amino]-[2,4′]bipyridinyl-2′-yl}-amide] | < 8
18 | O=C(Nc1cc(-c2cccc(NCc3ccccn3)n2)c(Cl)cn1)[C@@H]1CCCNC1 [Example 52, (R)-Piperidine-3-carboxylic acid {5′-chloro-6-[(pyridin-2-ylmethyl)-amino]-[2,4′]bipyridinyl-2′-yl}-amide] | 38
19 | O=C(Nc1cc(-c2cccc(NCC3CCOCC3)n2)c(Cl)cn1)[C@H]1CCCN(S(=O)(=O)C2CC2)C1 [Example 93, (S)-1-Cyclopropanesulfonyl-piperidine-3-carboxylic acid {5′-chloro-6-[(tetrahydro-pyran-4-ylmethyl)-amino]-[2,4′]bipyridinyl-2′-yl}-amide] | < 8
20 | N[C@H]1CC[C@@H](C(=O)Nc2cc(-c3cccc(NCC4CCOCC4)n3)c(Cl)cn2)C1 [Example 48, (1R,3S)-3-Amino-cyclopentanecarboxylic acid {5′-chloro-6-[(tetrahydro-pyran-4-ylmethyl)-amino]-[2,4′]bipyridinyl-2′-yl}-amide] | < 8

The next lines start with the values.

Row | IC50 [nM] | SMILES
21 | 2 | C[C@@H]1CC[C@@H](C(=O)Nc2cc(-c3cccc(NCC4CCOCC4)n3)ccn2)CN1 (racemic) [Example 224, (3R,6R)-/(3S,6S)-6-Methyl-piperidine-3-carboxylic acid {6-[(tetrahydro-pyran-4-ylmethyl)-amino]-[2,4′]bipyridinyl-2′-yl}-amide]
22 | 2 | C[C@@H]1CC[C@@H](C(=O)Nc2cc(-c3cccc(NC[C@H]4CCOC(C)(C)C4)n3)ccn2)CN1 (mixture of isomers) [Example 228, (3R,6R)-/(3S,6S)-6-Methyl-piperidine-3-carboxylic acid {6-[((S)-2,2-dimethyl-tetrahydro-pyran-4-ylmethyl)-amino]-[2,4′]bipyridinyl-2′-yl}-amide]
23 | 3 | C[C@@H]1CC(CNc2cccc(-c3cc(NC(=O)C4CNCCOC4)ncc3Cl)n2)C[C@H](C)O1 (stereo partly drawn) [Example 203, [1,4]Oxazepane-6-carboxylic acid {5′-chloro-6-[((2R,6S)-2,6-dimethyl-tetrahydro-pyran-4-ylmethyl)-amino]-[2,4′]bipyridinyl-2′-yl}-amide]
24 | 1 | COC[C@@H]1C[C@@H](C(=O)Nc2cc(-c3ccc(F)c(NCC4(OC)CCOCC4)n3)c(Cl)cn2)CN1 [Example 253, (3R,5S)-5-Methoxymethyl-pyrrolidine-3-carboxylic acid {5′-chloro-5-fluoro-6-[(4-methoxy-tetrahydro-pyran-4-ylmethyl)-amino]-[2,4′]bipyridinyl-2′-yl}-amide]
25 | 14 | COC[C@@H]1CC[C@H](C(=O)Nc2cc(-c3cccc(NCC4CCOCC4)n3)c(Cl)cn2)CN1 (racemic) [Example 220, (3S,6S)-/(3R,6R)-6-Methoxymethyl-piperidine-3-carboxylic acid {5′-chloro-6-[(tetrahydro-pyran-4-ylmethyl)-amino]-[2,4′]bipyridinyl-2′-yl}-amide]
26 | 1 | CC1(C)CCC(C(=O)Nc2cc(-c3cccc(NCC4CCOCC4)n3)c(Cl)cn2)CN1 (stereo not shown) [Example 206, 6,6-Dimethyl-piperidine-3-carboxylic acid {5′-chloro-6-[(tetrahydro-pyran-4-ylmethyl)-amino]-[2,4′]bipyridinyl-2′-yl}-amide]
27 | 1 | CCC1(CNc2nc(-c3cc(NC(=O)[C@@H]4CCCNC4)ncc3Cl)ccc2F)CCOCC1 [Example 209, (R)-Piperidine-3-carboxylic acid {5′-chloro-6-[(4-ethyl-tetrahydro-pyran-4-ylmethyl)-amino]-5-fluoro-[2,4′]bipyridinyl-2′-yl}-amide]
28 | 5 | CC[C@H]1CC[C@H](C(=O)Nc2cc(-c3ccc(F)c(NCC4CCOCC4)n3)c(Cl)cn2)CN1 (single isomer, unassigned) [Example 257]
29 | 1 | CC1(C)CCC(C(=O)Nc2cc(-c3ccc(F)c(NCC4CCOCC4)n3)c(Cl)cn2)CN1 (stereo not shown) [Example 210, 6,6-Dimethyl-piperidine-3-carboxylic acid {5′-chloro-5-fluoro-6-[(tetrahydro-pyran-4-ylmethyl)-amino]-[2,4′]bipyridinyl-2′-yl}-amide]
30 | 1 | CC1(C)COCC(CNc2cccc(-c3cc(NC(=O)[C@@H]4CCCNC4)ncc3Cl)n2)O1 (stereo partly drawn) [Example 219, (R)-Piperidine-3-carboxylic acid {5′-chloro-6-[(6,6-dimethyl-[1,4]dioxan-2-ylmethyl)-amino]-[2,4′]bipyridinyl-2′-yl}-amide]

Same assay, conditions: Cdk9_cyclinT1_IC50, generated using one of the two Cdk9/cyclinT1 assays (IMAP or Alpha Screen), not specified per value; ATP 6 uM

Row | IC50 [nM] | SMILES
31 | < 8 | CC(C)C(=O)Nc1cc(-c2cc(NCC3CCOCC3)cnc2Cl)c(Cl)cn1 [Example 313, N-{2,5′-Dichloro-5-[(tetrahydro-pyran-4-ylmethyl)-amino]-[3,4′]bipyridinyl-2′-yl}-isobutyramide]
